For one assay, the system named is C. elegans expressing human WT TDP-43 (CK405). Nature of the assay: Motor function in C. elegans expressing human WT TDP-43. The note with it: transgenic TDP-43 nematodes, line not specified. Type of assay: in vivo. The source says: Determining whether compounds delay deterioration of motor function in C. elegans expressing TDP-43 in C. elegans: C. elegans is generally used as a simple in vivo model of disease bridging the gap between in vitro studies and in vivo studies in rodents (J Biol Chem, 2005. 280: 42655-68; J Neurosci, 2009. 29: 9210-8; Neurodegener Dis, 2010. 7: 68-75; each herein incorporated by reference in its entirety). Accordingly, C. elegans lines expressing TDP-43 (WT, G294A and A315T), obtained from Brian Kraemer, can be used to determine whether the indentified compounds ameliorate motor dysfunction associated with TDP-43 expression (J Neurosci, 2010. 30: 16208-19; herein incorporated by reference in its entirety). […] Movement and survival are calculated at adult days 1, 3 and 5, using methods described in the art (see, e.g., J. Neurosci. 2010 December 1, 30(48):16208-19; IEEE Trans Biomed Eng. 2004 October 51(10):1811-20, each herein incorporated by reference in its entirety).
In one example, eggs (C. elegans expressing A315T TDP-43, line CK426) were plated on agar containing the test compound. On day 4, movement of C. elegans was quantified and moved to plates with fresh compounds. On day 5, movement of C. elegans was again quantified. […]
As for `CCc1ccc(NC(=O)C(Cc2ccccc2)NS(=O)(=O)c2cccc3cccnc23)cc1` (stereo not drawn) [Compound 7], the motor function result was “improves motor function”.

In another assay the test system is non-transgenic N2 C. elegans. Nature of the assay: Motor function in non-transgenic N2 C. elegans. Type of assay: in vivo. Particulars: non-transgenic N2 line; FIG. 19 varying doses, FIG. 21 34.8 μM.
With `CCc1ccc(NC(=O)C(Cc2ccccc2)NS(=O)(=O)c2cccc3cccnc23)cc1` (stereo not drawn) [Compound 7], the motor function result was “improves motor function”.

A further assay relates to mutant TDP-43 inclusions in human BE-M17 neuroblastoma cells. Nature of the assay: Arsenite-induced TDP-43 inclusion formation in BE-M17 cells. Type of assay: cell-based. Particulars: arsenite 0.5 mM, 1 hr, 10 μg/ml. The text has this:
The inventors transfected human BE-M17 neuroblastoma cells with WT TDP-43, TDP-4386-414 or TDP-43216-414 constructs N-terminally tagged with GFP. Full length WT TDP-43 localized to the nucleus under basal conditions (FIG. 15, WT TDP-43 shown). To investigate TDP-43 aggregation under the stressful conditions, cells were exposed to arsenite, an agent classically used to induce SGs (Biochem Soc Trans, 2002, 30, 963-9; J Cell Biol, 2000, 151, 1257-68; J Cell Biol, 1999, 147, 1431-42; each herein incorporated by reference in its entirety). Arsenite causes stress through multiple mechanisms (Toxicol Appl Pharmacol, 2001, 177, 132-48; herein incorporaed by reference in its entirety). Arsenite directly induces oxidative stress by reacting with oxygen in a reaction similar to the Fenton reaction, and arsenite also uses up glutathione, which causes further oxidative stress (Toxicol Appl Pharmacol, 2001, 177, 132-48; herein incorporaed by reference in its entirety). Upon exposure to arsenite (1 hr) WT TDP-43 remained largely nuclear, but a small amount translocated to the cytoplasm where it formed inclusions (FIG. 15A, right panels, arrows). To determine whether the inclusions co-localized with SGs, we co-labeled the cells with antibodies to SG markers, including TIA-1, eIF3 and poly-A binding protein (PABP) (FIG. 15). […] Co-localization with other SG markers is also observed. […]
With `C[C@@H]1C[C@@H]([C@H](O)CC2CC(=O)NC(=O)C2)C(=O)[C@@H](C)C1` [cycloheximide], the “formation of inclusions composed of mutant TDP-43 constructs” value is given as “reversible”.

A further assay concerns TDP-43 inclusions in PC12 cells expressing WT TDP-43::GFP. Nature of the assay: High-throughput screen for inhibition of TDP-43 inclusion formation in inducible TDP-43::GFP PC12 cells (IN Cell Analyzer). The note with it: Rattus norvegicus, PC-12, 18 h, read-out: Inhibition of TDP-43 Inclusion Formation EC50.
Experimental: We generated a Tet-Off inducible PC12 cell line (Clontech; the parent line stably expresses high levels of the Tetracycline binding protein) that is stably transfected with a WT TDP-43::GFP (where the GFP is at the C-terminus). […] The high-throughput screen used the arsenite (50 μM, 18 hrs) treatment protocol, where arsenite was added 1 hr after the test compounds.
We used the automated GE IN Cell Analyzer 1000 microscope system for high throughput analyses. Test chemicals were added to the cells 48 hrs after induction of TDP-43 (by removal of doxycycline). After another 24 hrs, the cells were fixed and double-stained with DAPI (to detect nuclei). Inclusions present in a collar around the nucleus but not fully co-localized with the DAPI stain (FIG. 1) were identified by the IN-Cell analyzer as inclusions. The computer counted the number of cells (based on DAPI-positive nuclei), TDP-43 levels and inclusions per field. The counts from 6 different fields within a well were averaged to develop a measure of the mean number of inclusions per field. This was repeated for every well in a 384 well plate and every plate in the library.
PC12 cells are grown in DMEM, 10% NBS/Pen-Strep, 100 μg/ml hygromycin, 50 μM puromycin and 50 μg/ml doxycycline (the latter is removed for TDP-43 induction).
As usually defined, the EC50 is the concentration needed to bring the measured effect to its halfway point. Consider `COc1c(C)c2c(c(O)c1C/C=C(\C)CCC(=O)O)C(=O)OC2` [Mycophenolic acid, reference compound], for which the EC50 was 1500 nM.

Staying with this assay, now noted: read-out: Inhibition of TDP-43 Inclusion Formation EC50; PC12 TDP-43::GFP cells; arsenite 50 μM, 18 hrs; representative values.
Consider `CC(C)(C)c1ccc(S(=O)(=O)Nc2ccc(SCc3nc(OCC(F)(F)F)cc(OCC(F)(F)F)n3)cc2)cc1` [Compound 2-1], for which the EC50 was 152 nM. Regarding `C#CCNCC1(c2ccccc2)CCN(CCCCOC(c2ccc(F)cc2)c2ccc(F)cc2)CC1` [Compound 2-2], the EC50 amounted to 290 nM. The same measure, in the same setting: next, `OC1(c2ccccc2)CCN(CCCCOC(c2ccc(F)cc2)c2ccc(F)cc2)CC1` [Compound 2-3]: 1920 nM. Consider `Cc1ccc2ncnc(Nc3cccc(Cl)c3)c2c1` [Compound 2-4], for which the EC50 is 10 nM. Still for that read-out and setting: next, `Cc1cc2cc(CCNS(=O)(=O)c3ccc(Cl)cc3)c(=O)[nH]c2cc1C` [Compound 2-5]: 1290 nM. In the case of `COCc1ccc(C(=O)NC(CC(C)C)c2nnc3n2CCN(Cc2cc4ccccc4o2)CC3)o1` (stereo not drawn) [Compound 2-7], the EC50 came out at 11 nM. On the same count and under the same terms, next, `COc1cccc(CN2CCN(C(=O)c3cc4ccccc4[nH]3)CCC2=O)c1` [Compound 2-8]: 180 nM; `CCN(CC1CCCN(CCc2ccccc2OC)C1)C(=O)c1cc2ccccc2[nH]1` (stereo not drawn) [Compound 2]: 74 nM; `COc1cc(NC(=O)CCC2CCCN(Cc3ccc(F)c(OC)c3)C2)cc(OC)c1` (stereo not drawn) [Compound 3]: 39 nM. On the same count and under the same terms, the result for `COc1ccccc1OCC(=O)NC1CCCN(c2ccc(C(F)(F)F)cn2)C1` (stereo not drawn) [Compound 4] reads 98 nM; that for `COc1ccc(C2C(C(=O)Nc3ccccc3OC)=C(C)Nc3nc4ccccc4n32)cc1` (stereo not drawn) [Compound 5], 306 nM; that for `COc1ccc(NC(=O)C(Cc2ccccc2)NS(=O)(=O)c2cccc3cccnc23)cc1` (stereo not drawn) [Compound 6], 15 nM.

Turning to `CCc1ccc(NC(=O)C(Cc2ccccc2)NS(=O)(=O)c2cccc3cccnc23)cc1` (stereo not drawn) [Compound 7], the EC50 was 139 nM.

In the case of Mithramycin A [reference compound], the EC50 worked out at 2000 nM.

(Values after patent publication US9359363B2, “Identification of compounds that disperse TDP-43 inclusions” (priority 2011, dated 2016).)
